Source: patent publication US20090142364A1, “Method for finding novel peptide immunostimulatory adjuvants, compositions and methods of use” (priority 2007, published 2009)
Where a SMILES comes first, the peptide text is derived from it. [ ]: non-standard residue; d: D form.

Key:
mAb E6/1.2 = settings: cited from earlier work
[1] = system: antibody response to ovalbumin; assay: Adjuvant activity: antibody response to ovalbumin in mice, titer by solid-phase ELISA; type: in vivo, Balb/c mice; settings: for Adjuvant index / Anti-ovalbumin antibody titer: i.p.
Procedure: To study the adjuvant activity of RN-peptide, Balb/c mice were immunized with ovalbumin in saline in the presence of the RN-peptide, its analogs or GMDP, or without any adjuvant (control). The adjuvant was introduced on first immunization, whereas second immunization was carried out with half dose of OVA without adjuvant.
Adjuvant activity. Groups of 5 Balb/c mice were administered i.p. with 2.5-10 μg ovalbumin (Sigma, USA) per mouse in 200 μl PBS. RN-peptide (0.1-100 μg) or GMDP (1-100 μg) was introduced simultaneously with ovalbumin on first immunization. The second immunization was carried out 28 days later with half dose of ovalbumin (1.25-5.0 μg/200 μl) without adjuvant. Control mice received ovalbumin twice without adjuvant. Three days after the second immunization mice were bled from the tail vein. […] Control mice received polysaccharide without any adjuvant. Five and ten days after immunization mice were bled.
The antibody titer was evaluated by solid-phase ELISA as described by Douillard and Hoffman (1983) Enzyme-linked immunosorbent assay for screening monoclonal antibody production using enzyme-labeled second antibody. The antigen (ovalbumin or polysaccharide), 5 μg/ml in bicarbonate buffer, pH 8.6 (100 μl), was introduced into wells of 96-well microtiter plate. Incubation was carried out overnight at 4° C. The plate was washed 5 times with PBS and 5 times with PBS/0.1% Tween-20 (PBS-T). Remaining binding sites were blocked with 1% gelatin in PBS (2 h, room temperature). After washing 100 μl of mouse serum (1:100 dilution) was added, and serial three-fold dilutions were made. Bound antibodies were visualized by incubation with Horse-Radish-Peroxidase (HRP)-conjugated rabbit anti-mouse antibodies and OPD as the chromogenic substrate.

[2] = rat, in vivo, ip
Procedure: (§1) We studied the Ia-antigen-inducing activity of RN-peptide by stimulation in vitro of murine peritoneal macrophages. Flow cytometry was used to assess Ia-antigen expression. […] The pyrogenicity of the peptide was studied in Wistar rats. […] The dynamics of alteration of rectal temperature were monitored during 2.5 h.
The pyrogenic effect SPF female Wistar rats were injected i.p. with a peptide (1.01 mg/kg; 5.74×10^−7 mole/kg) in PBS or with equal dose of GMDP (0.4 mg/kg; 5.74×10^−7 mole/kg). Rectal temperature was recorded every 5 minutes for 160 minutes using PowerLabe/4sp system with an electronic thermometer (MLT1403 Rectal Probe for Rats, AD Instruments USA). All data were quantified (mean±SEM) and compared by the variance analysis.

[3] = system: Balb/c mice peritoneal mononuclear cells (PMC); assay: Ia-antigen-inducing effect, flow cytometry, peritoneal mononuclear cells; type: cell-based, mouse
Procedure: as §1
Balb/c mice peritoneal mononuclear cells (PMC) were isolated by Histopaque density gradient centrifugation. PMC or WEHI-3 cells were incubated with RN-peptide (0.1-10 μg/ml) or GMDP (positive control) or saline (negative control) in RPMI 1640 medium, supplemented with 5% fetal calf serum upon rotary mixing for 18 h at 37° C. Cells were stained on ice bath with MKD6 anti-Ia^d mAb (supernatant from the in vitro culture, 1:10 dilution) and FITC-labeled anti-mouse immunoglobulin (Sigma, USA, 1:300 dilution), and then with phycoerythrin-labeled F4/80 mAb (Caltag, USA, 0.2 μg/100 μl). Ia antigen expression was assessed by flow cytometry using EPICS “Elite” (Coulter, USA).

E. coli strain TG-1 = assay: Survival of Balb/c mice infected with E. coli strain TG-1; type: in vivo, mouse; settings: 2 ng i.p., 6 mice at 0 h
Procedure: Groups of Balb/c mice (20-22 g) were administered i.p. with RN-peptide, or GMDP, or saline (control), and then infected i.p. with E. coli strain TG-1 cells. Two doses of E. coli cells were used—1×10^8 (LD50) and 2×10^8 (LD100). Mice were infected one day (experiment A) or seven days (experiment B) after injection of the immunomodulator. Survival of mice was assessed during three days. Results showing that RN-peptide protects mice from lethal doses of E. coli infections (Table 4).

[4] = adjuvant 1 μg, ovalbumin 10 μg then 5 μg
[5] = adjuvant 10 μg, ovalbumin 10 μg then 5 μg
[6] = adjuvant 100 μg, ovalbumin 10 μg then 5 μg
[7] = Experiment A (infected one day after injection), 1 × 10^8 E. coli cells (LD50)
[8] = Experiment A (infected one day after injection), 2 × 10^8 E. coli cells (LD100)
[9] = Experiment B (infected seven days after injection), 1 × 10^8 E. coli cells (LD50)
[10] = Experiment B (infected seven days after injection), 2 × 10^8 E. coli cells (LD100)
[11] = adjuvant 10 μg, ovalbumin 2.5 μg then 1.25 μg

Compound: CC(=O)NC1C(OC2C(CO)OC(O)C(NC(C)=O)C2OC(C)C(=O)NC(C)C(=O)NC(CCC(=O)O)C(N)=O)OC(CO)C(O)C1O (stereo not drawn) [LL-GMDP]
- binding of mAb E6/1.2 (mAb E6/1.2; compared with GMDP): bind equally well

Compound: R-I-peptide: 10-mer, RN-peptide truncated from C-terminus (SEQ ID NO: 9) (RVPPRYHAKI)
- Adjuvant index [1, 4]: 6.3 ± 0.06
- Anti-ovalbumin antibody titer [1, 4]: 24000
- Adjuvant index [1, 5]: 3.2 ± 0.09
- Anti-ovalbumin antibody titer [1, 5]: 19200
- Adjuvant index [1, 6]: 4.2 ± 0.05
- Anti-ovalbumin antibody titer [1, 6]: 25200
- adjuvant activity (in words) ([1]; ovalbumin in mice): adjuvant active

Compound: C[C@H](N)C(=O)N[C@H](CCC(=O)O)C(N)=O [Ala-D-iGln] (H-Ala-[dE]-NH2)
- inhibition of binding of GMDP to E6/1.2 mAb (mAb E6/1.2): not

Compound: R-H-peptide: 7-mer, RN-peptide truncated from C-terminus (SEQ ID NO: 10); truncated heptapeptide (RVPPRYH)
- Adjuvant index [1, 4]: 0.7 ± 0.03
- Anti-ovalbumin antibody titer [1, 4]: 4000
- Adjuvant index [1, 5]: 2.3 ± 0.05
- Anti-ovalbumin antibody titer [1, 5]: 13900
- Adjuvant index [1, 6]: 8.6 ± 0.09
- Anti-ovalbumin antibody titer [1, 6]: 51900
- dose required for maximal effect relative to RN-peptide ([1]; mouse, in vivo): 100 times

Compound: VN-peptide: 14-mer, RN-peptide truncated from N-terminus (SEQ ID NO: 11) (VPPRYHAKISPMVN)
- Adjuvant index [1, 4]: 0.9 ± 0.03
- Anti-ovalbumin antibody titer [1, 4]: 5400 ± 200
- Adjuvant index [1, 5]: 1.4 ± 0.04
- Anti-ovalbumin antibody titer [1, 5]: 8400 ± 230
- Adjuvant index [1, 6]: 0.7 ± 0.03
- Anti-ovalbumin antibody titer [1, 6]: 4200 ± 150

Compound: CC(=O)N[C@H]1[C@H](O[C@H]2[C@H](O[C@H](C)C(=O)O)[C@@H](NC(C)=O)C(O)O[C@@H]2CO)O[C@H](CO)[C@@H](O)[C@@H]1O (stereo partly drawn) [GlcNAc-β(1-4)-MurNAc]
- inhibition of binding of GMDP to E6/1.2 mAb (mAb E6/1.2): could be inhibited by high concentration

Compound: RV-peptide: 14-mer, RN-peptide truncated from C-terminus (SEQ ID NO: 8) (RVPPRYHAKISPMV)
- Adjuvant index [1, 4]: 6.3 ± 0.06
- Anti-ovalbumin antibody titer [1, 4]: 37800 ± 350
- Adjuvant index [1, 5]: 1.4 ± 0.04
- Anti-ovalbumin antibody titer [1, 5]: 8400 ± 240
- Adjuvant index [1, 6]: 0.8 ± 0.03
- Anti-ovalbumin antibody titer [1, 6]: 4800 ± 180

Compound: CC(=O)N[C@H]1[C@H](O[C@H]2[C@H](O[C@H](C)C(=O)N[C@@H](C)C(=O)N[C@H](CCC(=O)O)C(N)=O)[C@@H](NC(C)=O)C(O)O[C@@H]2CO)O[C@H](CO)[C@@H](O)[C@@H]1O (stereo partly drawn) [GMDP, N-acetylglucosaminyl-β1-4-N-acetylmuramyl-alanyl-D-isoglutamine, reference compound]
- increase in body temperature [2]: 2.0-4.0%
- concentration of peak (optimal) Ia-antigen response ([3]; 18 h incubation): 10 µg/mL
- increase in Ia-positive cell number ([3]; at optimal dose, overnight treatment): 10%
- optimal dose for Ia-positive cell increase ([3]; overnight treatment): 10 µg
- Number of survivors (E. coli strain TG-1; [7]): 2
- surviving mice, 24 hours after infection (E. coli strain TG-1; [7]): 2
- surviving mice, 28 hours after infection (E. coli strain TG-1; [7]): 2
- surviving mice, 72 hours after infection (E. coli strain TG-1; [7]): 2
- Number of survivors (E. coli strain TG-1; [8]): 1
- surviving mice, 24 hours after infection (E. coli strain TG-1; [8]): 2
- surviving mice, 28 hours after infection (E. coli strain TG-1; [8]): 2
- surviving mice, 72 hours after infection (E. coli strain TG-1; [8]): 1
- Number of survivors (E. coli strain TG-1; [9]): 2
- surviving mice, 24 hours after infection (E. coli strain TG-1; [9]): 5
- surviving mice, 28 hours after infection (E. coli strain TG-1; [9]): 2
- surviving mice, 72 hours after infection (E. coli strain TG-1; [9]): 2
- Number of survivors (E. coli strain TG-1; [10]): 0
- surviving mice, 24 hours after infection (E. coli strain TG-1; [10]): 3
- surviving mice, 28 hours after infection (E. coli strain TG-1; [10]): 2
- surviving mice, 72 hours after infection (E. coli strain TG-1; [10]): 0
- Adjuvant index [1, 4]: 0.7 ± 0.03
- Anti-ovalbumin antibody titer [1, 4]: 4000 ± 150
- Adjuvant index [1, 11]: 2.37 ± 0.06
- Anti-ovalbumin antibody titer [1, 11]: 5800 ± 150
- Adjuvant index [1, 5]: 1.3 ± 0.03
- Anti-ovalbumin antibody titer [1, 5]: 7900 ± 200
- Adjuvant index [1, 6]: 10.8 ± 0.08
- Anti-ovalbumin antibody titer [1, 6]: 64800 ± 500
